# From patent US5130300A, “Method for enhancing growth of mammary parenchyma” (Monsanto Company, priority 1987, dated 1992)
# Legend:
# [1] = system: Quarter-Udders in Pregnant Beef Cows; assay: Intramammary infusion of hEGF or mEGF, quarter-udder weights and DNA (Examples 1-2); format: in vivo, cross-bred beef cows; settings: 25 micrograms per infusion, days 1,3,5,7,9, Freund's emulsion
# Experimental: 12 pregnant, non-lactating, cross-bred beef cows within their last 40-80 days of gestation were housed in a free-stall facility, fed a ration of alfalfa hay and pelleted concentrate, and administered 10 ml of an excipient (Freund's Incomplete Adjuvant emulsified with an equal volume of 0.9% sterile saline) into each quarter-udder by intramammary infusion through the streak canal on days 1, 3, 5, 7 and 9 of this study. Infusions were carried out using a 3.2 centimeter long, approximately 12 gauge, blunt-tipped plastic teat infusion cannula obtained from Jorgensen Laboratories, Loveland, Colo. Because front and rear udder halves are not of equal size, treatment vs. control comparisons were made between laterally opposite quarters, i.e., front right vs. front left and rear right vs. rear left. Treatments were randomly assigned to right or left udder-halves, with the contralateral half serving as its control. […] (the other 6 animals).
# Prior to treatment, each animal was teatdipped for 3 consecutive days and each teat was pre-cleaned with 70% ethanol in water on the day of treatment. On day 14 the cows were sacrificed and their mammary glands excised. Each udder (milked out if necessary) was skinned, divided along the median suspensory ligament and then into front right, front left, rear right and rear left udder quarters. Each quarter-udder was ground, a representative 200 gm sample was homogenized with 4 times its volume of water, and the total homogenate volume of each was measured.
# To determine dry weight of each quarter-udder, three 10 ml aliquots of a 1:5 diluted homogenate were placed in pre-weighed pans, dried overnight at 60° and then dried and weighed to a consistent value.
# To determine dry fat-free tissue weight of each quarter-udder, three 5 ml aliquots of the undiluted homogenate were extracted by the method of Anderson, 41 J. Anim. Sci. 118 (1975) except that samples were placed in pre-weighed 25×150 mm glass centrifuge tubes and extracted overnight with 10 ml ethanol:ether (3:1), then centrifuged (5 min at 500 rpm) and the supernatant aspirated; an additional 10 ml aliquot of ethanol:ether was added for a second extraction; and the sample was dried under nitrogen until a consistent value was obtained.
# DNA in each quarter-udder was determined by the method of Burton, 12B Methods in Enzymol. 163-66 (1968) using an assay solution of 15% trichloroacetic acid (TCA) in 2N HCl. In these determinations, aliquots of gland homogenate were diluted 1:5 with water and rehomogenized. Using triplicate 0.25 ml or 0.5 ml aliquots of these homogenates, each aliquot was mixed with 2 ml of the assay solution. After 30 min, the samples were centrifuged for 10 min at 3000 rpm and the resulting pellets were washed with 2 ml of a 10% solution of TCA in distilled water. After recentrifugation, the resulting pellets were disrupted in 2 ml of 0.5N perchloric acid and heated for 30 min at 70° to extract DNA. Samples were centrifuged and 1 ml of each resulting supernatant was placed in a 12×75 mm tube. After addition of 2 ml of a solution of 1.5 g diphenylamine and 1.5 ml H2 SO4 in 100 ml glacial acetic acid (and 0.1 ml of 1.6% aqueous acetaldehyde per 20 ml reagent just prior to use), the samples were vortexed and incubated overnight at 27°. Calf thymus DNA was the standard.
# [2] = system: Quarter-Udders in Pregnant Beef Cows; assay: Intramammary infusion of hEGF, quarter-udder weights and DNA (Examples 3-6); format: in vivo, cross-bred beef cows; settings: for DNA, % Increase, (A-B)/B / DNA, Mean Increase (A-B) / Dry Fat-Free Weight, % Increase, (A-B)/B / Dry Fat-Free Weight, Mean Increase (A-B) / Dry Weight, % Increase, (A-B)/B / Dry Weight, Mean Increase (A-B) / Wet Weight, % Increase, (A-B)/B / Wet Weight, Mean Increase (A-B): B = excipient only
# Excerpt: 24 pregnant, non-lactating, cross-bred beef cows within their last 40-80 days of gestation were randomly divided into 4 treatment groups with 6 animals in each group.
# [3] = system: Quarter-Udders in Pregnant Beef Cows; assay: Intramammary infusion of hEGF, quarter-udder weights and DNA (Examples 7-8); format: in vivo, cross-bred beef cows
# Excerpt: 24 pregnant, non-lactating, cross-bred beef cows within their last 40-80 days of gestation were randomly divided into 3 treatment groups with 8 animals in each group.
# [4] = system: pregnant Holstein heifers; assay: Intramammary infusion until parturition, milk production in first 105 days of lactation (Example 13); format: in vivo; settings: one animal, 250 micrograms hEGF every third day only until 15 days before parturition
# Experimental: 48 pregnant Holstein heifers within their last 40 days (approximately) of gestation were housed in a free-stall facility, fed a ration of alfalfa hay and pelleted concentrate, and administered 10 ml of an excipient into each quarter-udder by intramammary infusion through the streak canal every third day until parturition with the exception of one animal which was treated with human EGF as described in this Example only until 15 days before parturition. Infusions were carried out using a 3.2 centimeter long, approximately 12 gauge, blunt-tipped plastic teat infusion cannula obtained from Jorgensen Laboratories, Loveland, Colo. […] In each animal, all 4 quarter-udders received the same treatment. Each udder was sprayed with 70% ethanol and wiped dry prior to treatment and dipped with an iodine solution following treatment. At parturition, 4 animals from each treatment group were sacrificed and their mammary glands were removed for analysis. The other 8 animals from each treatment group were milked normally each a.m. and p.m. for the first 105 days of lactation.
# [5] = B = opposite quarter, excipient only
# [6] = Group 1: total of 125 micrograms hEGF in Freund's emulsion
# [7] = Group 2: total of 125 micrograms hEGF in sesame emulsion
# [8] = Group 3: total of 12.5 micrograms hEGF in sesame emulsion
# [9] = Group 4: total of 1.25 milligrams hEGF in sesame emulsion
# [10] = Group 1: total of 125 micrograms hEGF
# [11] = Group 1: total of 125 micrograms hEGF, B = excipient only
# [12] = Group 2: total of 1.25 milligrams hEGF
# [13] = Group 2: total of 1.25 milligrams hEGF, B = excipient only
substance,measurement,setting,value
"hEGF: human EGF from G. D. Searle & Co., prepared by expression of recombinant DNA, purity above 90%","DNA, Mean Increase (A-B)",[1]; [5],84.5 mg
same,"Dry Fat-Free Weight, Mean Increase (A-B)",[1]; [5],4.9 g
same,"Dry Weight, % Increase, (A-B)/B",[1]; [5],7.7%
same,"Wet Weight, Mean Increase (A-B)",[1]; [5],32.6 g
same,"DNA, Treatment Mean",[1]; day 14,794.5 mg
same,"Dry Fat-Free Weight, Treatment Mean",[1]; day 14,63.2 g
same,"Dry Weight, Treatment Mean",[1]; day 14,120.0 g
same,"Wet Weight, Treatment Mean",[1]; day 14,389.9 g
same,"DNA, Avg % Increase/Animal",[1]; vs excipient-only quarter,14.8%
same,"Dry Fat-Free Weight, Avg % Increase/Animal",[1]; vs excipient-only quarter,16.1%
same,"Wet Weight, Avg % Increase/Animal",[1]; vs excipient-only quarter,12.9%
same,"DNA, Avg % Increase/Animal",[2]; [6],23.0%
same,"DNA, Treatment Mean",[2]; [6],723.0 mg
same,"Dry Fat-Free Weight, Avg % Increase/Animal",[2]; [6],8.3%
same,"Dry Fat-Free Weight, Treatment Mean",[2]; [6],60.3 g
same,"Dry Weight, Treatment Mean",[2]; [6],107.2 g
same,"Wet Weight, Treatment Mean",[2]; [6],364.9 g
same,"DNA, % Increase, (A-B)/B",[2]; [6],14.9%
same,"DNA, Mean Increase (A-B)",[2]; [6],94.0 mg
same,"Dry Fat-Free Weight, % Increase, (A-B)/B",[2]; [6],6.2%
same,"Dry Fat-Free Weight, Mean Increase (A-B)",[2]; [6],3.5 g
same,"Dry Weight, % Increase, (A-B)/B",[2]; [6],6.1%
same,"Dry Weight, Mean Increase (A-B)",[2]; [6],6.2 g
same,"Wet Weight, % Increase, (A-B)/B",[2]; [6],4.4%
same,"Wet Weight, Mean Increase (A-B)",[2]; [6],15.4 g
same,"DNA, Avg % Increase/Animal",[2]; [7],70.0%
same,"DNA, Treatment Mean",[2]; [7],995.0 mg
same,"Dry Fat-Free Weight, Avg % Increase/Animal",[2]; [7],15.9%
same,"Dry Fat-Free Weight, Treatment Mean",[2]; [7],71.0 g
same,"Dry Weight, Avg % Increase/Animal",[2]; [7],20.2%
same,"Wet Weight, Avg % Increase/Animal",[2]; [7],10.4%
same,"Wet Weight, Treatment Mean",[2]; [7],370.2 g
same,"DNA, % Increase, (A-B)/B",[2]; [7],41.5%
same,"DNA, Mean Increase (A-B)",[2]; [7],292.0 mg
same,"Dry Fat-Free Weight, % Increase, (A-B)/B",[2]; [7],3.2%
same,"Dry Fat-Free Weight, Mean Increase (A-B)",[2]; [7],2.2 g
same,"Dry Weight, % Increase, (A-B)/B",[2]; [7],9.9%
same,"Dry Weight, Mean Increase (A-B)",[2]; [7],11.0 g
same,"Wet Weight, % Increase, (A-B)/B",[2]; [7],3.9%
same,"Wet Weight, Mean Increase (A-B)",[2]; [7],14.0 g
same,"DNA, Treatment Mean",[2]; [8],867.6 mg
same,"Dry Fat-Free Weight, Avg % Increase/Animal",[2]; [8],16.3%
same,"Dry Fat-Free Weight, Treatment Mean",[2]; [8],79.4 g
same,"Dry Weight, Avg % Increase/Animal",[2]; [8],7.8%
same,"Dry Weight, Treatment Mean",[2]; [8],132.4 g
same,"Wet Weight, Avg % Increase/Animal",[2]; [8],0.6%
same,"Wet Weight, Treatment Mean",[2]; [8],397.8 g
same,"Dry Fat-Free Weight, Mean Increase (A-B)",[2]; [8],6.7 g
same,"Dry Weight, % Increase, (A-B)/B",[2]; [8],4.2%
same,"Dry Weight, Mean Increase (A-B)",[2]; [8],5.4 g
same,"DNA, Avg % Increase/Animal",[2]; [9],1.6%
same,"DNA, Treatment Mean",[2]; [9],733.2 mg
same,"Dry Fat-Free Weight, Treatment Mean",[2]; [9],81.7 g
same,"Dry Weight, Treatment Mean",[2]; [9],131.5 g
same,"Wet Weight, Avg % Increase/Animal",[2]; [9],9.9%
same,"Wet Weight, Treatment Mean",[2]; [9],391.9 g
same,"DNA, % Increase, (A-B)/B",[2]; [9],0.5%
same,"DNA, Mean Increase (A-B)",[2]; [9],4.0 mg
same,"Dry Fat-Free Weight, Mean Increase (A-B)",[2]; [9],6.6 g
same,"Dry Weight, Mean Increase (A-B)",[2]; [9],13.6 g
same,"Wet Weight, Mean Increase (A-B)",[2]; [9],31.7 g
same,"DNA, Treatment Mean",[3]; [10],396.9 mg
same,"Dry Fat-Free Weight, Treatment Mean",[3]; [10],52.8 g
same,"Dry Weight, Treatment Mean",[3]; [10],113.0 g
same,"Wet Weight, Treatment Mean",[3]; [10],363.0 g
same,"DNA, % Increase, (A-B)/B",[3]; [11],10.6%
same,"DNA, Mean Increase (A-B)",[3]; [11],38.0 mg
same,"Dry Fat-Free Weight, % Increase, (A-B)/B",[3]; [11],4.1%
same,"Dry Fat-Free Weight, Mean Increase (A-B)",[3]; [11],2.1 g
same,"Dry Weight, % Increase, (A-B)/B",[3]; [11],3.0%
same,"Dry Weight, Mean Increase (A-B)",[3]; [11],3.3 g
same,"Wet Weight, % Increase, (A-B)/B",[3]; [11],1.5%
same,"DNA, Treatment Mean",[3]; [12],344.0 mg
same,"Dry Fat-Free Weight, Treatment Mean",[3]; [12],63.8 g
same,"Wet Weight, Treatment Mean",[3]; [12],392.5 g
same,"Dry Fat-Free Weight, % Increase, (A-B)/B",[3]; [13],3.9%
same,"Dry Fat-Free Weight, Mean Increase (A-B)",[3]; [13],2.4 g
same,"Dry Weight, % Increase, (A-B)/B",[3]; [13],5.3%
same,"Dry Weight, Mean Increase (A-B)",[3]; [13],6.3 g
same,"Wet Weight, % Increase, (A-B)/B",[3]; [13],1.1%
same,"Wet Weight, Mean Increase (A-B)",[3]; [13],4.3 g
same,Average milk production more than average of the 8 control cows,[4],9.6 kg milk/day
same,"Average milk production more than average of the 8 control cows, percent",[4],34.8%
